# Measurements as given in US20130296316A1, “Antiparasitic Agents Based On mTOR Inhibitors” (priority 2010, published 2013).
# Like-named read-outs stand apart in the source and are kept apart here.
# Columns and labels:
# T. b. rhodesiense = assay: Potency assessment against T. b. rhodesiense EATRO3 bloodstream form (AlamarBlue, 72 h); type: cell-based, Trypanosoma brucei rhodesiense; settings: Trypanosoma brucei, RHODESIENSE; for IC50: Table 2B, read-out: T. brucei rhod IC50, growth inhibition
# L. major promastigotes [1] = assay: Potency assessment against Leishmania major promastigotes (growth, cell counting); type: cell-based; settings: for IC50 / EC50: Leishmania major; for IC50: Table 2B, read-out: L. major Promastigote IC50, growth inhibition; for EC50: promastigotes, average of three replicates, read-out: Effective concentration (EC50) L. major; for activity against L. major promastigotes in words: highest concentration tested
# [2] = test system: L. donovani promastigotes; assay: Potency assessment against Leishmania donovani promastigotes (growth, cell counting); type: cell-based; settings: Leishmania donovani; for IC50: Table 2B, read-out: L. donovani Promastigote IC50, growth inhibition
# [3] = test system: L. donovani axenic amastigotes; assay: Potency assessment against Leishmania donovani axenic amastigotes (growth, cell counting); type: cell-based; settings: for IC50 / EC50: Leishmania donovani; for IC50: Table 2B, read-out: L. donovani Axenic Amastigote IC50, growth inhibition; for EC50: axenic amastigotes, average of three replicates, read-out: Effective concentration (EC50) L. donovani axenic amastigotes; for activity against L. donovani axenic amastigotes in words: highest concentration tested
# human cells = settings: literature, Table 1; read-out: Inhibition of Cell Growth EC50; cited from earlier work
# T. cruzi trypomastigotes = assay: T. cruzi intracellular replication in NIH/3T3 host cells (β-galactosidase, CPRG); type: cell-based, Trypanosoma cruzi; settings: Trypanosoma cruzi; for EC50: NIH3T3, 96 h, trypomastigotes with 3T3 host cells, four days, three replicates within ±10.2%, read-out: Effective concentration (EC50) T. cruzi; for IC50: NIH3T3, Table 2B, read-out: T. Cruzi IC50, growth inhibition
# [4] = test system: T. brucei brucei Lister 427; assay: Potency assessment against T. brucei brucei Lister 427 bloodstream form (AlamarBlue, 72 h); type: cell-based, Trypanosoma brucei brucei; settings: Trypanosoma brucei
# T. b. brucei Lister 927 = assay: Potency assessment against T. b. brucei Lister 927; type: cell-based, Trypanosoma brucei brucei; settings: Trypanosoma brucei; Table 3
# Procedure: Assays were performed using the strain of T. brucei brucei Lister 427 adapted to the laboratory, and the human-infective strain T. b. rhodesiense (EATRO3 ETat1.2 TREU164 [37]). Both strains were grown and tested as bloodstream forms. To establish the EC50, cultures of Trypanosoma brucei and T. b. rhodesiense were treated with two-fold increasing concentrations of compounds (with similar DMSO increasing concentration as control). Cell populations were measured at 72 hours with an Infinite F200 microplate reader (Tecan Austria GmbH, Austria); the determination of cell viability was carried out by the established colorimetric technique AlamarBlue® with modifications, a 96-well plate format spectrophotometric assay which measures the ability of living cells to reduce resazurin [38,39]. Data obtained with T. b. brucei Lister 427 were confirmed by manual counting in a Neubauer chamber for a direct microscopic examination to rule out multinucleated phenotypes that could mask the colorimetric assays, as well as the subtraction of solvent background to dismiss a potential solvent-derived fluorescence. Pentamidine was used as drug control for potency comparison, and T. b. brucei Lister 927 strain was included in our experiments to evaluate the adaptation to medium for the different strains as a variable condition.
# [5] = test system: T. brucei gambiense, ELIANE strain; assay: Potency assessment against T. b. gambiense ELIANE bloodstream form; type: cell-based, Trypanosoma brucei gambiense; settings: Trypanosoma brucei, GAMBIENSE; Table 3; read-out: EC50 T. b. gambiense ELIANE
# PI3K p110α = PI3K p110α (Homo sapiens, UniProt P42336); settings: human enzyme, Table 1; cited from earlier work
# PI3K p110α, sequence (P42336 whole entry): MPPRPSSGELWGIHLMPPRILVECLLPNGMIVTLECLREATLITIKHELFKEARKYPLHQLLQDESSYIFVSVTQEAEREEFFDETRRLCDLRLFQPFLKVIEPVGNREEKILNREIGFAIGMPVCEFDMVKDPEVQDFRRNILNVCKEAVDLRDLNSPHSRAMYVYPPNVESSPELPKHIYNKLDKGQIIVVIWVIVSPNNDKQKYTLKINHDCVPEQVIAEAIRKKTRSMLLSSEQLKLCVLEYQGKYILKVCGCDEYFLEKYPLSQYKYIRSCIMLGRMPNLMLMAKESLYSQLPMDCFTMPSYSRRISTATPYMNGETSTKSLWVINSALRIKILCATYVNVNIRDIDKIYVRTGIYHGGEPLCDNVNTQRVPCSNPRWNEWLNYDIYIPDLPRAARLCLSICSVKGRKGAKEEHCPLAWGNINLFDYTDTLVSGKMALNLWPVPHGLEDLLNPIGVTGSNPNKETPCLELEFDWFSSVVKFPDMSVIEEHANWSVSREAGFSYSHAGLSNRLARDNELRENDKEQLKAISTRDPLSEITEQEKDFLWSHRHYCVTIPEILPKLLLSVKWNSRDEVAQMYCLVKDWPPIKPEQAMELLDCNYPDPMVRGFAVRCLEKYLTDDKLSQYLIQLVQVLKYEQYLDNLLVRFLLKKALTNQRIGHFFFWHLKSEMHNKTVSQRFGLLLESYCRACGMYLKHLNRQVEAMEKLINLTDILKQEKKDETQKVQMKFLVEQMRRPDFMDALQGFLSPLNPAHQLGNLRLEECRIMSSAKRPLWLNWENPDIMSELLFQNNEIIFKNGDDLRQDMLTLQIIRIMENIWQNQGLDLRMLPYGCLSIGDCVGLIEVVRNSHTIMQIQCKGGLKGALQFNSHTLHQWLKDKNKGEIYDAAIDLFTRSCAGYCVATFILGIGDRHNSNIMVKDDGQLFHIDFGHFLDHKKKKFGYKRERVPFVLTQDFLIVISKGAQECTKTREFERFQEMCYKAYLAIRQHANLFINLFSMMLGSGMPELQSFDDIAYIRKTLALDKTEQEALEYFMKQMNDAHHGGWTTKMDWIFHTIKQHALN
# PI3K p110α, sequence (P27986 whole entry partner): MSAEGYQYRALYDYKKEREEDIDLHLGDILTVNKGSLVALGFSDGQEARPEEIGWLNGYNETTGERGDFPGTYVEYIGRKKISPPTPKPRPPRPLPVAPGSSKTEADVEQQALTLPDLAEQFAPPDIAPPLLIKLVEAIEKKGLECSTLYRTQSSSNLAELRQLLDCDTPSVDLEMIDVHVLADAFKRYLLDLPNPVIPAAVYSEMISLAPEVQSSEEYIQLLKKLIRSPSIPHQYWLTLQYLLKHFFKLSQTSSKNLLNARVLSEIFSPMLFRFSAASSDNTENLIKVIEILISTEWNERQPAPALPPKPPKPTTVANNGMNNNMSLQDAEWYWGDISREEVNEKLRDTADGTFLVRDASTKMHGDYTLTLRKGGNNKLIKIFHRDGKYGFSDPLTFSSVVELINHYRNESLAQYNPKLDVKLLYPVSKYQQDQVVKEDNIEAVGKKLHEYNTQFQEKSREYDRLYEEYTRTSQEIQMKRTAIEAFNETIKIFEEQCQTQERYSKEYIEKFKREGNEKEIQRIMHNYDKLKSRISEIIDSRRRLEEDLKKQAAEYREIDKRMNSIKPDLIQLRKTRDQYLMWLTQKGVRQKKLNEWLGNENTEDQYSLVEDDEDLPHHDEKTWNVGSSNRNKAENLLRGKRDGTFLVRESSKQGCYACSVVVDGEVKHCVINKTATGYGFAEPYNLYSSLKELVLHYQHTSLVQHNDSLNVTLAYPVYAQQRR
# [6] = test system: T. brucei brucei Lister 427 bloodstream cells; assay: Morphological and cell cycle alterations in T. brucei (flow cytometry); type: cell-based, Trypanosoma brucei brucei; settings: 16 h, WYE-354 2 μM
# Procedure: Flow cytometry was used to assess cell size and DNA content, to reveal a G1 arrest and inhibition of protein synthesis or G2 arrest and multinucleated cells. […]. After permeabilization with […], saponin (0.5 mg/mL final concentration), the culture was RNAse treated for 30 minutes (10 μg/mL final concentration) and stained with 20 μg/mL propidium iodide immediately before its acquisition in a FACscan cytometer. Cells incubated with equivalent concentration of drug solvent (DMSO) were included in each experiment as control population.
# mTOR = mTOR (Homo sapiens, UniProt P42345); settings: cited from earlier work
# Leishmania = Leishmania growth inhibition summarised across both species and stages; type: cell-based; settings: range over L. major and L. donovani, promastigotes and amastigotes; read-out: activity against Leishmania across both species and stages
# L. major promastigotes [7] = assay: Cell size and DNA content analysis in Leishmania (flow cytometry); type: cell-based, Leishmania major; settings: overnight; PI-103 4 μM, WYE-354 25 μM, NVP-BEZ235 0.5 μM (EC60-EC90)
# Procedure: L. major log phase promastigotes were inoculated at a concentration of 10^6 cells/ml into media with compounds as indicated, and incubated overnight with varying drug concentrations to assess cell size and DNA content. For cell size, forward scatter of live promastigotes was measured by a FACS flow cytometer (Becton Dickinson), utilizing dye exclusion with 5 μg/ml propidium iodide (PI) to gate for live cells. DNA content was determined by flow cytometry using fixed and permeabilized L. major stained with PI as previously described, but reducing the incubation time with PI and RNase A from 1 hour to 30 minutes. Histogram analysis was performed using CellQuest 3.1 software (BD Bioscience).
# [8] = bloodstream form, average of three replicates, read-out: Effective concentration (EC50) T. b. brucei
compound,measurement,setting,value
c1ccc(CN2CCC(n3ncc4c(N5CCOCC5)nc(-c5ccncc5)nc43)CC2)cc1 [NEU-00000232],IC50,T. b. rhodesiense,3.05 µM
same,IC50,L. major promastigotes [1],6.54 µM
same,IC50,[2],8.06 µM
same,IC50,[3],2.43 µM
COc1ccc(-c2ccc3c(N4CCOCC4)nc(N4C[C@@H](C)O[C@@H](C)C4)nc3n2)cc1CO [Ku-0063794],EC50,human cells,0.03 µM
same,EC50,L. major promastigotes [1],> 25 µM
same,activity against L. major promastigotes in words,L. major promastigotes [1],inactive
same,EC50,T. cruzi trypomastigotes,> 10 µM
same,EC50,[4]; [8],0.89 ± 0.14 µM
same,EC50,[3],> 5 µM
same,activity against L. donovani axenic amastigotes in words,[3],inactive
"O=c1cc(N2CCOCC2)oc2c(-c3ccccc3)cccc12 [LY294002, 2-(4-morpholinyl)-8-phenyl-4H-1-benzopyran-4-one]",EC50,L. major promastigotes [1],> 25 µM
same,activity against L. major promastigotes in words,L. major promastigotes [1],inactive
same,EC50,T. cruzi trypomastigotes,> 50 µM
same,EC50,[4]; [8],> 2 µM
same,EC50,[3],> 5 µM
same,activity against L. donovani axenic amastigotes in words,[3],inactive
Nc1ccc(-c2nc(N3CCOCC3)c3cnn(C4CCN(Cc5ccccc5)CC4)c3n2)cc1 [NEU-00000233],IC50,T. b. rhodesiense,3.7 µM
same,IC50,L. major promastigotes [1],< 25 µM
same,IC50,[2],~25 µM
c1ccc(-c2nc(N3CCOCC3)c3oc4ncccc4c3n2)cc1 [NEU-0000290],IC50,L. major promastigotes [1],> 20 µM
same,IC50,T. cruzi trypomastigotes,1.5 µM
same,IC50,[3],> 20 µM
N=C(N)c1ccc(OCCCCCOc2ccc(C(=N)N)cc2)cc1 [Pentamidine],EC50,T. b. brucei Lister 927,0.0303 ± 0.0104 µM
same,EC50,"T. b. rhodesiense; Table 3, read-out: EC50 T. b. rhodesiense EATRO3",0.0037 ± 0.0004 µM
same,EC50,[5],0.0025 ± 0.0005 µM
same,EC50,"[4]; Table 3, read-out: EC50 T. b. brucei 427",0.0042 ± 0.0002 µM
CCOc1ccccc1-c1nc(N2CCCCC2)c2oc3ncccc3c2n1 [NEU-0000364],IC50,T. b. rhodesiense,> 5 µM
same,IC50,T. cruzi trypomastigotes,> 50 µM
c1ccc(-c2nc(N3CCCCC3)c3oc4ncccc4c3n2)cc1 [NEU-0000291],IC50,L. major promastigotes [1],> 10 µM
same,IC50,T. cruzi trypomastigotes,12 µM
same,IC50,[3],> 10 µM
COC(=O)Nc1ccc(-c2nc(N3CCOCC3)c3cnn(C4CCN(C(=O)OC)CC4)c3n2)cc1 [WYE-354],EC50,human cells,0.03 µM
same,IC50,PI3K p110α,1 µM
same,EC50,"T. b. rhodesiense; bloodstream form, average of three replicates, read-out: Effective concentration (EC50) T. b. rhodesiense",0.78 ± 0.08 µM
same,EC50,L. major promastigotes [1],4.1 ± 0.3 µM
same,EC50,T. cruzi trypomastigotes,> 10 µM
same,"effect on cellular DNA content / cell cycle, T. b. brucei","[6]; PI-103 1 μM, Pp242 2 μM, NVP-BEZ235 100 nM",no significant variations in cell cycle
same,"effect on cell size, T. b. brucei",[6],small but noticeable reduction in cell size
same,EC50,[4]; [8],0.58 ± 0.26 µM
same,EC50,"[2]; promastigotes, average of three replicates, read-out: Effective concentration (EC50) L. donovani promastigotes",5.95 ± 0.84 µM
same,EC50,[3],6.1 ± 1.73 µM
same,IC50,"mTOR; human enzyme, Table 1",0.004 µM
same,mTOR IC50 in words,mTOR; mammalian cells / literature,low nanomolar
same,EC50,Leishmania,4 to 6 µM
same,"effect on cell size and DNA content, L. major promastigotes",L. major promastigotes [7],G1 arrest and a decrease in cell size
Oc1ccccc1-c1nc(N2CCOCC2)c2cnn(C3CCN(Cc4ccccc4)CC3)c2n1 [NEU-00000231],IC50,T. b. rhodesiense,2.23 µM
same,IC50,L. major promastigotes [1],2.78 µM
same,IC50,[2],8.01 µM
same,IC50,[3],3.02 µM
COc1cccc(-c2nc(N3CCOCC3)c3oc4ncccc4c3n2)c1 [NEU-0000288],IC50,L. major promastigotes [1],4.07 µM
same,IC50,T. cruzi trypomastigotes,3.7 µM
same,IC50,[3],~20 µM
